Columns and labels:
MRSA USA 300 = test: Resistance development serial passage assay; type: cell-based, Staphylococcus aureus; details: MRSA serially passaged over 30 days in sub-lethal antibiotic concentrations
Description: (§1) FIG. 3 illustrates the results obtained when selected compounds were assessed using a resistance development serial passage assay. A) Daily fold-increase of MIC compared to initial MIC against MRSA USA 300 grown in sub-lethal concentrations of daptomycin, compound 5 or compound 16 over 30 days. B). Daily fold-increase of MIC compared to initial MIC against VRE E155 grown in sub-lethal concentrations of daptomycin, compound 5 or compound 16 over 30 days.
(§2) From glycerol stocks, bacterial strains were cultured on blood agar plates and incubated overnight at 37° C. A single colony was grown to exponential phase (OD600=0.5) in TSB+0.002% p80 and diluted 1:100 in fresh media. In polypropylene 96-well microtiter plates, antibiotics were added in biological triplicates and serial diluted 2-fold by transfer and mixing from one well to the next to achieve a final volume of 50 μL per well. An equal volume of bacterial suspension was added to the wells and plates were incubated overnight at 37° C. […] This procedure was repeated for 30 days and the MIC was recorded daily. Cultures containing daptomycin were supplemented with 50 mg L^−1 CaCl2 and 10 mg L^−1 MgSO4. The experiment was performed in biological replicates and for each replicate the MIC was determined from the median of a minimum of triplicates.

VRE E155 = test: Resistance development serial passage assay; type: cell-based, Enterococcus faecium; details: VanA-type VRE strain serially passaged over 30 days in sub-lethal antibiotic concentrations
Description: as §1, §2

`CCCCCCCCCC(=O)N[C@@H](Cc1c[nH]c2ccccc12)C(=O)N[C@H](CC(N)=O)C(=O)N[C@@H](CC(=O)O)C(=O)N[C@@H]1C(=O)NCC(=O)N[C@@H](CCCN)C(=O)N[C@@H](CC(=O)O)C(=O)N[C@H](C)C(=O)N[C@@H](CC(=O)O)C(=O)NCC(=O)N[C@H](CO)C(=O)N[C@@H]([C@H](C)CC(=O)O)C(=O)N[C@@H](CC(=O)c2ccccc2N)C(=O)O[C@@H]1C` [daptomycin, reference compound] was tested, and the “resistance induction, fold-increase of MIC compared to initial MIC” value (MRSA USA 300) was 16 fold and the “resistance induction, fold-increase of MIC compared to initial MIC” value (VRE E155) was 128 fold.

— US20230174584A1, “Antibiotic Compounds” (priority 2019, published 2023)
